Test results reported in US12582616B2, “Molecular targets for modulation of dissociative and associative states” (The Board of Trustees of the Leland Stanford Junior …, priority 2020, dated 2026).
“Also recorded” adds a separate entry of the source.

Tests used:
mice [1] = test: Open field test; format: in vivo, mouse; settings: 5 min session, compared with saline
Text: Open Field Test: Mice were placed in an evenly illuminated 50 cm×50 cm open field test box. Mouse position was captured using a webcam and Viewer software (Biobserve).

mice [2] = test: Hot plate test
Description: Hot Plate Test: Mice were placed on the hot plate (Bioseb), which was set to 55° C. and surrounded by a clear circular perimeter. Mouse activity was recorded using two cameras from different angles. The experiment ended when the mouse jumped to escape or 90 seconds had elapsed. Care was taken to clean and dry the hot plate apparatus between animals. For optogenetic experiments, mice were connected to patch cords and then returned to a holding cage. Illumination began 30 seconds before mice were placed on the hot plate.

[3] = test system: retrosplenial cortex (RSP); test: Widefield imaging of cortical activity in GCaMP6s mice
Description: We recorded multiregional neuronal activity by leveraging widefield microscopy, a cleared skull preparation, and atlas registration in GCaMP6s-expressing mice (FIGS. 1A-1C)^6,8,15.
As described^8, mice were anesthetized with isoflurane, the scalp was removed, the skull cleaned and dried, and a custom head-plate was cemented to contacts over the cerebellum and in front of the olfactory bulb. The skull was then covered in a thin layer of cyanoacrylate glue (Apollo 2000, Cyberbond), clear dental acrylic (Ortho-Jet, Lang Dental), and clear nail polish (Electron Microscopy Services). […] (0.1 mg/kg) was injected subcutaneously for pain management. […] Imaging was performed on a custom-built fluorescence microscope designed for high light collection efficiency and large field of view. […] Alternating 410 nm and 488 nm illumination for non-Ca^2+ dependent artifact removal was controlled using a microcontroller (Arduino) slaved to the frame output trigger of the camera.
Each trace (corresponding to either a fiber photometry signal, a cellular two-photon signal, a widefield regional centroid, a widefield pixel, an sEEG trace, or a smoothed spike rate Neuropixels trace) was z-scored, and the power spectral density (PSD) was then estimated using Welch's method (pwelch( ) in Matlab), with a window size of 10*fs (15*fs for human sEEG) where fs is the sampling rate of the signal. The average band power within a specified band (i.e. 1-3 Hz) was then computed by integrating the PSD estimate (bandpower in Matlab). […] Unless otherwise indicated, the PSD was computed across the time window from minutes 10 to 11 post-injection.

mice [4] = test: Tail suspension test; format: in vivo, mouse
Description: Tail Suspension Test: Mouse activity was recorded using a 60 Hz web camera. Struggling activity was quantified for minutes 2-10. […] Illumination began 30 seconds before tails were secured with tape and suspended from the beam. Mice were excluded if they climbed on their own tails.

mice [5] = test: Righting reflex assay; format: in vivo, mouse
Text: Righting Reflex Assay: Mice were held at the neck and tail, rotated to supine position on a flat surface, and quickly released. Time to right was quantified as moment of release to moment when all 4 legs touched the ground. A five second threshold was used to classify righting success (less than 5 seconds) from failure (more than 5 seconds). […] Illumination began for 30 seconds, and then the mouse was swiftly inverted onto the flat surface.

[6] = test system: retrosplenial cortex (RSP); test: Retrosplenial gene disruption (HCN1, GRIN1) and fiber photometry; format: in vivo, mouse
Description: (§1) A 405 nm and 470 nm LED illumination (Thorlabs) was combined (425 nm longpass, Thorlabs DMLP425) and coupled into a fiber optic patch cord (400 μm diameter, 0.48 NA, Doric Lenses) using a longpass dichroic (505 nm, Thorlabs DMLP505) and a fixed-focused coupler/collimator with a standard FC connector (F240FC-A, NA 0.51, f=7.9 mm)^47,48. Each illumination channel was frequency modulated using the sync output from a lock-in amplifier (SR810 DSP, Stanford Research Systems).
Analysis was performed using custom MATLAB (MathWorks) scripts. Widefield imaging videos were registered to a 2D top-projection atlas generated from the annotated Allen Brain Atlas volume, version CCFv2, in MATLAB (MathWorks), using an affine transformation computed from four manually selected control points. Each video was DF/F normalized, using the median for each pixel over the entire time series as F. The 410 nm channel was then temporally smoothed using a moving average (width=400 ms). The smoothed 410 nm DF/F signal for each pixel was regressed onto the 488 nm DF/F signal for the corresponding pixel, and the regression coefficients were used to scale the 410 nm channel to the 488 nm channel. This scaled 410 nm DF/F signal was then subtracted from the 488 nm DF/F signal to produce a normalized signal for each pixel. For quantification, activity traces were extracted from points centered in five cortical regions (visual, somatosensory, parietal, motor, retrosplenial) on the left hemisphere of the brain. The video data was Gaussian smoothed spatially (radius=2 pixels). Similarly, for fiber photometry recordings, the 410 nm signal was regressed onto the 488 nm signal, the 410 nm signal was scaled by the regression coefficients, and then subtracted from the 488 nm signal.
Stereotaxic Surgery: Adult male and female HCN1^f/f, NR1^f/f, or wildtype C57/BI6 were injected bilaterally in two retrosplenial locations (AP −3.1 and −3.4, ML+/−0.5, DV −0.5) with 1 uL of AAV8-Ef1 a-mCherry-IRES-Cre (titer 5E11) and AAVdj-Ef1a-DIO-GCaMP6m (titer 1E13). A 400-micron optical fiber was implanted over one injection location. […]

[7] = test system: retrosplenial cortex (RSP); test: Fiber photometry and widefield imaging of RSP, dose comparison; format: in vivo, mouse
Text: as §1, with “Systems). GCaMP fluorescence was collected through the same patchcord and delivered through a bandpass emission filter (Semrock, FF01-520/35) onto a NewFocus 2151 femtowatt silicon photoreceiver (Newport, DC Low mode). […]” for “Systems).”
Analysis was performed using custom MATLAB (MathWorks) scripts. […] For quantification, activity traces were extracted from points centered in five cortical regions (visual, somatosensory, parietal, motor, retrosplenial) on the left hemisphere of the brain. […]
Each trace (corresponding to either a fiber photometry signal, a cellular two-photon signal, a widefield regional centroid, a widefield pixel, an sEEG trace, or a smoothed spike rate Neuropixels trace) was z-scored, and the power spectral density (PSD) was then estimated using Welch's method (pwelch( ) in Matlab), with a window size of 10*fs (15*fs for human sEEG) where fs is the sampling rate of the signal. […]

mice [8] = test: Resident-intruder social interaction assay; format: in vivo, mouse; settings: ketamine, both channel-knockouts vs wild-type
Description: Social Interaction Assay: Resident-intruder social interaction was recorded for two minutes. Interactions were defined as close physical proximity behaviors, including sniffing, touching, and following. […] Illumination began 30 seconds before the same-sex intruder mouse was introduced.

mice [9] = test: Observation for seizure-like behavior after dissociative doses; format: in vivo, mouse; settings: dissociative doses of ketamine
Text: One characteristic of seizures is increased synchrony. While the ketamine-induced rhythm involved increased synchrony in neuronal firing, the initiation, spread, maintenance/termination, and behavior were distinguishable from typical seizures.

[10] = test system: brain regions correlated with RSP; test: Simultaneous recording from four Neuropixels probes with i.p. drug delivery
Description: Mice were anesthetized with isoflurane, carefully leveled in a stereotaxic apparatus and their scalp and periosteum were removed. A 3% hydrogen peroxide in saline solution was used to clean the surface of the skull. A custom stainless steel headbar was leveled on the skull and attached using clear dental cement. After the cement had dried, targeted probe entry sites were stereotaxically marked on the cement layer with a permanent marker (Day 1: “mPFC”, 2.3AP, 0.6ML; “somatosensory”, −0.7AP, −4.0ML; “retrosplenial”, −2AP, −1 ML; “subiculum”, −3.5AP, 2.14ML; Day 2: “OFC”: 2.5AP, 1.5ML; “mPFC”: 2.3AP, −0.6ML; “retrosplenial”, −2AP, 1ML; “thalamus”, −1.5AP, −1.7ML). In part, they were selected to cover areas with known connectivity to the retrosplenial cortex. A 2 mm long insulated platinum-iridium wire was implanted centrally over the cerebellum, with the last several hundred microns bared to serve as an electrical reference.
Mice were acclimated to head fixation and the recording rig over several days before recording. Several hours before recording, mice were anesthetized for approximately 30 minutes each while small 1 mm craniotomies were made over four pre-marked areas. Craniotomies were kept clean of bone fragments and made such that bleeding was minimized. The skull was covered with a pool of saline and with Quik-Cast to protect and keep moist craniotomies before recording. Mice recovered in their homecages before recording. Immediately prior to recording set up, mice were very briefly anesthetized with isoflurane and implanted with an IV catheter system (BD Saf-T-Intima Closed IV Catheter System: 22G×3/4′, containing an integrated Y adaptor and safety lock) to their intraperitoneal cavity and affixed with glue. […] While still anesthetized, mice were headfixed and tubing was secured stably to a custom mouse holder by tape. Quik-Cast was removed from the skull, and craniotomies were briefly cleaned before being submerged in a pool of saline. […] The four acquisitions were synchronized using a common squarewave signal recorded for all probes and aligned to the nearest pulse edge. […]

[11] = 50 mg/kg ketamine, control mice of knockout experiment

Question: With `CNC1(c2ccccc2Cl)CCCCC1=O` (stereo not shown) [ketamine] as the compound, how does the open-field locomotion velocity (mice [1]) read?
Answer: decreased velocity

Question: And the “affective paw-licking, hot plate” value (mice [2]; 50 mg/kg ketamine, RSP Cre-virus in HCN1-KO mice)?
Answer: strikingly restored affective paw-licking

Question: What about the “affective paw-licking, hot plate” value (mice [2]; [11]) of the same compound?
Answer: abolished affective paw-licking

Question: What about the “reflexive paw-flicks, hot plate” value (mice [2]; [11]) of the same compound?
Answer: preserving reflexive paw-flicks

Question: And the “affective/emotional defensive behavior (paw-lick), hot plate” value (mice [2]; ketamine 25 and 50 mg/kg)?
Answer: abolished affective/emotional

Question: What about the “motivational defensive behavior (jump-to-escape), hot plate” value (mice [2]; ketamine 25 and 50 mg/kg) of the same compound?
Answer: abolished

Question: And the “reflexive responses (paw-flick), hot plate” value (mice [2]; ketamine dose series up to 50 mg/kg)?
Answer: did not reduce reflexive responses

Question: And the affective behavior (mice [2]; ketamine, GRIN1 knockouts)?
Answer: without recovery of affective behavior

Question: And the dissociation-like behavioral effects (mice [2]; ketamine, HCN1 channels removed from retrosplenial cortex)?
Answer: selectively abolished both the ketamine-induced rhythm and dissociation-like behavioral effects; also recorded: did not fully elicit the dissociation-like behavioral effects

Question: What about the “magnitude of RSP rhythm on repeated days” value ([3]; five consecutive days) of the same compound?
Answer: exhibited similar magnitude across five consecutive days

Question: And the “1-3 Hz oscillation localized to retrosplenial cortex (RSP), widefield imaging” value ([3]; i.p. injection, ketamine 50 mg/kg)?
Answer: a 1-3 Hz oscillation emerged in retrosplenial cortex (RSP), but not in any other cortical region

Question: And the tail-suspension escape responses (mice [4]; ketamine >=25 mg/kg)?
Answer: similarly suppressed tail-suspension escape responses

Question: And the tail suspension-escape behavior (mice [4]; ketamine, both channel-knockouts vs wild-type)?
Answer: modestly-recovered tail suspension-escape behavior

Question: And the “consciousness (spontaneous ambulation, response to external stimuli)” value (mice [5]; ketamine >=25 mg/kg, subanesthetic)?
Answer: consciousness was maintained

Question: What about the “righting of postural inversion” value (mice [5]; ketamine, knockout and wild-type mice) of the same compound?
Answer: all mice successfully-righted postural inversion

Question: What about the “ketamine-induced RSP oscillation” value ([6]; local GRIN1 (NMDAR) knockout in RSP) of the same compound?
Answer: significantly diminished; also recorded: partially attenuated; also recorded: Reduced ketamine-induced oscillation-power

Question: What about the “ketamine-induced RSP oscillation” value ([6]; local HCN1 knockout in RSP) of the same compound?
Answer: significantly diminished; also recorded: selectively abolished both the ketamine-induced rhythm and dissociation-like behavioral effects; also recorded: no longer induced the deep retrosplenial rhythm; also recorded: Reduced ketamine-induced oscillation-power

Question: What about the “ketamine-induced RSP oscillation” value ([6]; wild-type) of the same compound?
Answer: preserved in wild-type

Question: And the “1-3 Hz RSP oscillation” value ([7]; ketamine 13 mg/kg, listed as Ketamine)?
Answer: not 13 mg/kg

Question: What about the “1-3 Hz RSP oscillation” value ([7]; ketamine 25 mg/kg) of the same compound?
Answer: rhythm at 25 mg/kg

Question: And the resident-intruder social interactions (mice [8])?
Answer: modestly-recovered

Question: What about the “seizure-like signs (rigidity, convulsive movements, absence-like states, salivation/rearing/falling)” value (mice [9]) of the same compound?
Answer: no rigidity, convulsive movements, absence-like states, or salivation/rearing/falling were observed

Question: What about the “correlations of brain regions with RSP” value ([10]; 8-12 min after 50 mg/kg ketamine i.p.) of the same compound?
Answer: correlations with RSP were reduced

Question: And the “correlation of laterodorsal and anteroventral thalamus with each other and RSP” value ([10]; subanesthetic ketamine)?
Answer: became more-strongly correlated to each other and RSP

Question: What about the “rhythmicity of specific subcortical regions” value ([10]; subanesthetic ketamine) of the same compound?
Answer: exhibiting increased rhythmicity
